In one experiment the target is T1, hERG channels (Homo sapiens, UniProt Q12809).
T1 construct: host or cells: CHO-hERG cells
Briefly: hERG assay, whole-cell patch-clamp in CHO-hERG cells. The experiment is classed as cell-based. The note with it: whole-cell patch-clamp, CHO-hERG cells, 33.0-37.0 °C; Table 10. The protocol: CHO-hERG cells (Sophion Biosciences (Ballerup, Denmark), subcultured and frozen in WuXi AppTec (Suzhou) Co., Ltd.), stored in liquid nitrogen, were tested and determined to be free from mycoplasma contamination. Cells were not used after the 30th passage. CHO-hERG cells were cultured in a humidified incubator of 5% CO2 (4% to 8%) in air at 37° C. (±2° C.). The cells were recovered with recovery medium (F12 medium with 10% fetal bovine serum), subcultured in complete medium (F12 medium, supplemented with 10% fetal bovine serum, 1% Geneticin® selective antibiotic (G418), 89 μg/mL Hygromycin B (HB)), and the culture medium was switched to recovery medium in the last subculture before patch-clamp experiment.
To determine the compounds' IC50, select compounds (“test articles”) were dissolved into DMSO, and then diluted with ECS to get working solutions. Five concentrations of 0.3, 1, 3, 10, and 30 μM were tested. Two replicate cells for each concentration were tested.
Exponentially growing CHO-hERG cells were collected and suspended in extracellular solution for use. The hERG current was recorded at physiological temperature (33.0° C. to 37.0° C.) using whole-cell patch-clamp techniques. Output signals from the patch-clamp amplifier were digitized and low-pass filtered at 2.9 KHz. The recording was controlled with Patchmaster Pro software. The recording chamber with seeded cells was mounted on an inverted microscope stage. A cell in the recording chamber was randomly selected for testing. The cell was continuously perfused from the perfusion system. A micropipette filled with ICS was used as recording electrode in the manual patch-clamp study. The micropipette was prepared on the day of the patch-clamp experiment using glass capillaries (BF150-117-10, SUTTER INSTRUMENT USA). The pipette resistance (Rp) was within 2 to 5 MΩ with ICS filled. From the holding potential of-80 mV, the voltage was increased to +60 mV for 850 ms to open the hERG channels. After that, the voltage was decreased to-50 mV for 1275 ms, causing a “rebound” or tail current, the peak tail current was measured and collected for data analysis. Finally, the voltage was decreased to the holding potential (−80 mV). This command voltage protocol was repeated every 15 s continuously during the test article application.
During the initial recording period with vehicle control working solution, the peak tail current amplitude was monitored until it had been stable for at least 3 sweeps. Cells were then perfused with test article/positive control working solutions until the peak tail current amplitude reached steady state. Steady state was considered reached when three consecutive super-imposable peak tail currents were collected. At this point, cells were once again perfused with next concentration of test article. One or more test articles/positive control or different concentrations of the same test article were tested on each cell with vehicle control washout until the current amplitude returned to values at least 80% of those measured before application of test article. […] At least 2 replicate cells for each concentration were tested. […] (Milnes, J. T., et al.)
Seal criteria: When acquiring whole-cell configuration, a holding potential (e.g.,-80 mV) was applied while membrane parameters were collected (Cm, Rm and Rs). A “good” whole-cell recording was generally defined as: series resistance (Rs) was less than 10 MΩ; membrane resistance (Rm) was more than 500 MΩ and membrane capacitance (Cm) was less than 100 pF. Current amplitude: The peak current amplitude must be between 400 pA and 5000 pA before the test article/positive control application; otherwise the cell was discarded. Leak criteria: At-80 mV holding potential, the absolute leak current value must be less than 200 pA. The amplitude of current was adjusted with leak current at-80 mV. The sweeps which absolute leak current value was more than 200 pA was not used in data analysis.

A further experiment has as its system IL-6. Briefly: IL-6 AlphaLISA in LPS-primed THP1 macrophages. The note with it: Homo sapiens, THP-1, read-out: IL-6 Activity (μM), THP1 macrophages, PMA, LPS priming, nigericin 6.7 uM.
The target of a further experiment is NLRP3 inflammasome (Homo sapiens, UniProt Q96P20). Put plainly: NLRP3 inflammasome activation in THP1 macrophages, IL-1β AlphaLISA. The note with it: IL-1β Activity (nM), THP1 macrophages, PMA, LPS priming, nigericin 6.7 uM activation.
Chain of NLRP3 inflammasome (Q96P20 whole entry): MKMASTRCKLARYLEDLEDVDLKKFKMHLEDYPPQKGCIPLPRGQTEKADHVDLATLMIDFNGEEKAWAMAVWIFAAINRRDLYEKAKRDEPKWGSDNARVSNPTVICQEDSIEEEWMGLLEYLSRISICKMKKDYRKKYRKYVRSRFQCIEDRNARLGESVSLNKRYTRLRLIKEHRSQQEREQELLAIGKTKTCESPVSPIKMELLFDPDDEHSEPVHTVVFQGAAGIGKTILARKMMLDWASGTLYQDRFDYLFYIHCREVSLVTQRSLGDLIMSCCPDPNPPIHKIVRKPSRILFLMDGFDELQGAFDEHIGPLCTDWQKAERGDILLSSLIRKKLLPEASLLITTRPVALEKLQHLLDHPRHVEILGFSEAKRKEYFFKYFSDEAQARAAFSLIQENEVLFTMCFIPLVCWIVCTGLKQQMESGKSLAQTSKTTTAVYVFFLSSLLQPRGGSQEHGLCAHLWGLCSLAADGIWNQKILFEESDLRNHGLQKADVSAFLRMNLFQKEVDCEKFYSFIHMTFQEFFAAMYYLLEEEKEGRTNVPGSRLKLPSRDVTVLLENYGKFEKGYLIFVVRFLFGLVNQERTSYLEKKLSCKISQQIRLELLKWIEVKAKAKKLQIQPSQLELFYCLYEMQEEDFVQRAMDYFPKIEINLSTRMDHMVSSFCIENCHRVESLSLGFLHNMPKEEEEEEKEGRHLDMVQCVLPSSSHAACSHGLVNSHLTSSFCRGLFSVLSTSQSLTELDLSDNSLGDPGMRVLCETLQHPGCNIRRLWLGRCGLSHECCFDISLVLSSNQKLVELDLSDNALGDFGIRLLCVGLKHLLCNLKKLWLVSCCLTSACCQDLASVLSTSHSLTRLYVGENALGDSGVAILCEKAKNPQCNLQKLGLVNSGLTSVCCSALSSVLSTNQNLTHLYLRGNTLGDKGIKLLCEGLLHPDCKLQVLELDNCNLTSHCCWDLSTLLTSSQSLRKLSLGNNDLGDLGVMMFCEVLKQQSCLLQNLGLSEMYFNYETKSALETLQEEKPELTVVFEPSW

T1 sequence (Q12809 whole entry): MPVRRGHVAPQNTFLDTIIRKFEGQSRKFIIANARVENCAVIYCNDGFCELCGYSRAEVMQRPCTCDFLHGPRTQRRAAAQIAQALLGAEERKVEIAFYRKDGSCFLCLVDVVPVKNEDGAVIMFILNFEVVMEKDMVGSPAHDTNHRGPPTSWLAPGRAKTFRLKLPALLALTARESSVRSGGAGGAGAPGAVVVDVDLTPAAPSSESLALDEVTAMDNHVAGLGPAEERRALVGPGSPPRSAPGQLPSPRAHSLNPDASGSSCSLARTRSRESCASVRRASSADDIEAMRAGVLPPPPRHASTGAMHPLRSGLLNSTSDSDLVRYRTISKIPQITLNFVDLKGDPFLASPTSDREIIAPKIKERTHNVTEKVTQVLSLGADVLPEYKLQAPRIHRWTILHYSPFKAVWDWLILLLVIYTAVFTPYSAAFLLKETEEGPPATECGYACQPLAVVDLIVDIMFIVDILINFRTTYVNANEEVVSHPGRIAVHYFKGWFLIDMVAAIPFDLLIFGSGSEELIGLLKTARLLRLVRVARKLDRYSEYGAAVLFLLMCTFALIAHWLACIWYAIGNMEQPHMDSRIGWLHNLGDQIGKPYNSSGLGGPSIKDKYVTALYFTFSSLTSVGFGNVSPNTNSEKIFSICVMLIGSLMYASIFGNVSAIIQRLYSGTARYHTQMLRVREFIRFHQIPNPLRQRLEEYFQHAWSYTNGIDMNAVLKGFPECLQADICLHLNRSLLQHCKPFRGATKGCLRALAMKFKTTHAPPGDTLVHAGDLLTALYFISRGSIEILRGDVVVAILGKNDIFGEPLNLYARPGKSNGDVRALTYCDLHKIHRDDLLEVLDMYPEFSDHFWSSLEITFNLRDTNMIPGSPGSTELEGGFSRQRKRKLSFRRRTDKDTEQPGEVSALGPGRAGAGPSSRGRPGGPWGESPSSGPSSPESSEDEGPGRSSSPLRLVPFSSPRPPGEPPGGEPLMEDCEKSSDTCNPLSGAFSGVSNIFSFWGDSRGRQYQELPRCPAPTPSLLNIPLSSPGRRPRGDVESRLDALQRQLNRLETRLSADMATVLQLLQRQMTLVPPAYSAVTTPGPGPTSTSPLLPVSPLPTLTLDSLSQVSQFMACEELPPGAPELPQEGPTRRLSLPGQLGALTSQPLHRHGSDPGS

For `Cc1cc(N[C@@H]2CCCN(C)C2)nnc1-c1cccc(C)c1O` [compound 67], the IC50 against hERG channels was 10 to 20 µM; in the experiment on IL-6, 5 to 10 µM; at NLRP3 inflammasome, less than 1 nM.

Source of the values: patent publication US20250304560A1, “MODULATORS OF NLRP3 INFLAMMASOME AND RELATED PRODUCTS AND METHODS” (Neumora Therapeutics, Inc., priority 2022, published 2025).
